The results in this text go back to patent US20110237686A1, “FORMULATIONS AND METHODS OF USE” (Cerulean Pharma Inc, priority 2010, published 2011).

Holding throughout (format): physicochemical
Series [1] is described as follows: Lyophilization using HP-β-CD, freezing with liquid nitrogen and vacuum at room temperature.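 Further: cyclodextrins or their derivatives tested as cryoprotectant during lyophilization of PEGylated nanoparticles, assessing particle size growth attributed to PEG crystallization.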 Conditions: PEGylated nanoparticles A, polymer 31.25 mg/mL, vacuum at room temperature.
Method: In this example, a new strategy of using cyclodextrins and their derivatives as a cryoprotectant was tested. […] A cryoprotectant is needed to lyophilize liquid formulation that contain PEGylated nanoparticles A (Entries #1 and #2).
The nature of series [2]: Lyophilization using other cyclodextrins. Particulars: for Dv90 / PDI / Zave / Filtration Potency Loss: post lyophilization. The method, then: Other CDs were also evaluated at the similar weight ratio of cryoprotectant/nanoparticle.
Series [3] is described as follows: Lyophilization of stealth liposome (Doxil). Particulars: lipids 16 mg/mL, cryoprotectant 40 mg/mL (2.5:1 w/w lipid), HP-β-CD lyophilization cycle, post lyophilization.
Series [4] can be described thus: Cryoprotectant screen, sucrose lyophilization cycle. Particulars: PEGylated nanoparticles A; for Dv90 / PDI / Zave: reconstituted. The method, then: A cryoprotectant screen was performed as follows.
These conditions are shown below in Table 21.

Series [5] in a line: Simple lyophilization of PLGA7K-PVA-PEG2K-30 and PLGA7K-PVA-PEG5K-30 PEGylated nanoparticle formulations. Conditions: 2K PEG PLGA nanoparticles 20 mg/mL, cryoprotectant 20 mg/mL (1:1 w/w). From the text:
The results are similar to that obtained for PEGylated nanoparticles A except for SB-β-CD. The result from SB-β-CD supported the H-bonding mechanism for cryoprotection of PEGylated PLGA nanoparticles since SB-β-CD has less hydroxyl groups than α-CD, γ-CD and HP-β-CD (about ⅓ of —OH groups of β-CD are substituted by sulfobutyl groups).

[6] abbreviates: cryoprotectant 20 mg/mL (0.64:1 w/w).
Setting [7] is: cryoprotectant 40 mg/mL (1.28:1 w/w).
Where [8] appears, read: cryoprotectant 40 mg/mL (1.28:1 w/w), listed as HP-beta-CD.
Setting [9] is: cryoprotectant 60 mg/mL (1.92:1 w/w).
Setting [10] is: cryoprotectant 80 mg/mL (2.56:1 w/w).
The mark [11] stands for this setting: PEGylated nanoparticles A, polymer 31.25 mg/mL, CD 40 mg/mL (1.28:1 w/w).
Where [12] appears, read: polymer 31.25 mg/mL (Doce. 1.5), cryoprotectant 100 mg/mL (3.2:1 w/w).
Setting [13] is: polymer 31.25 mg/mL, cryoprotectant 30 mg/mL (0.96:1 w/w).
The mark [14] stands for this setting: polymer 10.42 mg/mL (Doce. 0.50), cryoprotectant 100 mg/mL (9.6:1 w/w).
Where [15] appears, read: polymer 20.83 mg/mL (Doce. 1.00), cryoprotectant 100 mg/mL (4.8:1 w/w).
The mark [16] stands for this setting: polymer 26.05 mg/mL (Doce. 1.25), cryoprotectant 100 mg/mL (3.8:1 w/w).
Where [17] appears, read: polymer 31.25 mg/mL, cryoprotectant 20 mg/mL (0.64:1 w/w).
Where [18] appears, read: polymer 31.25 mg/mL, cryoprotectant 60 mg/mL (1.92:1 w/w).
Where [19] appears, read: polymer 31.25 mg/mL, cryoprotectant 200 mg/mL (6.4:1 w/w).
Where [20] appears, read: polymer 31.25 mg/mL, cryoprotectant 300 mg/mL (9.6:1 w/w).
[21] abbreviates: cryoprotectant 15 mg/mL (0.48:1 w/w).
Where [22] appears, read: SB-β-CD 40 mg/mL, polymer 28.87 mg/mL (Doce. 1.94), 1.39:1 w/w.
Where [23] appears, read: SB-β-CD 60 mg/mL, polymer 28.87 mg/mL (Doce. 1.94), 2.08:1 w/w.

“And” between values parts separate entries of the source, which are not always exact repeats. Equal entries are not always repeated.

In the case of “2-hydroxypropyl-β-cyclodextrin [HP-β-CD]”, the Dv90 in series [1] (setting [6]) was 121 nm; in series [1] (setting [8]), 118 nm and 119 nm; in series [1] (setting [9]), 119 nm; in series [1] (setting [10]), 119 nm; in series [2] (setting [11]) it was 119 nm; in series [3], 119 nm. In addition, the PDI is 0.095 in series [1] (setting [6]); 0.077 and 0.075 in series [1] (setting [8]); 0.089 in series [1] (setting [9]); 0.095 in series [1] (setting [10]); 0.075 in series [2] (setting [11]); 0.071 in series [3]. Moreover, the “Reconstituted Solution appearance” value was “some” in series [1] (setting [6]), “good” in series [1] (setting [7]), “good” in series [1] (setting [9]) and “good” in series [1] (setting [10]). The Zave in series [1] (setting [6]) was 90.93 nm; in series [1] (setting [8]), 89.43 nm and 90.66 nm; in series [1] (setting [9]), 89.84 nm; in series [1] (setting [10]), 90.60 nm; in series [2] (setting [11]) it was 90.66 nm; in series [3], 90.32 nm.
For the compound `OC[C@H]1O[C@@H](O[C@H]2[C@H](O)[C@@H](O)C(O)O[C@@H]2CO)[C@H](O)[C@@H](O)[C@H]1O` (stereo partly drawn) [Lactose, lactose], in series [4] (setting [12]), the “Lyophilized preparation Appearance” value was “some”, the “Recon. Solution Appearance” value was “cloudy”, the Dv90 came out at 178 nm and the PDI is reported as 0.352. The Zave in series [4] (setting [12]) worked out at 183.2 nm.
As to `OC[C@@H](O)[C@@H](O)[C@H](O)[C@H](O)CO` [Mannitol, mannitol], in series [4] (setting [12]), the “Lyophilized preparation Appearance” value is on record as “some”, the “Recon. Solution Appearance” value is recorded as “cloudy”, the Dv90 is 2540 nm and the PDI is given as 0.544. The Zave in series [4] (setting [12]) came out at 472.7 nm. Moreover, in series [4] (setting [13]), the “Lyophilized preparation Appearance” value was “good”, the “Recon. Solution Appearance” value was “precipitation”, the Dv90 amounted to 340 nm and the PDI was 0.638. Besides, in series [4] (setting [13]), the Zave was found to be 499.2 nm. In series [5], the “outcome after lyophilization (in place of particle size)” value (“outcome after lyophilization” below) is listed as “Precipitated”.
`OC[C@H]1O[C@H](O[C@H]2O[C@H](CO)[C@@H](O)[C@H](O)[C@H]2O)[C@H](O)[C@@H](O)[C@@H]1O` [Trehalose, trehalose]: the “Lyophilized preparation Appearance” value in series [4] (setting [14]), in series [4] (setting [15]), in series [4] (setting [16]), in series [4] (setting [12]), in series [4] (setting [17]) and in series [4] (setting [18]) was “good” each time. The “Lyophilized preparation Appearance” value in series [4] (setting [19]) and in series [4] (setting [20]) was “good” throughout. In addition, the “Recon. Solution Appearance” value is listed as “slight” in series [4] (setting [14]); “cloudy” in series [4] (setting [15]); “cloudy” in series [4] (setting [16]); “cloudy” in series [4] (setting [12]); “precipitation” in series [4] (setting [17]); “cloudy” in series [4] (setting [18]). Further, the “Recon. Solution Appearance” value in series [4] (setting [19]) and in series [4] (setting [20]) was “slight” in each case. In addition, the Dv90 is recorded as 160 nm in series [4] (setting [14]); 189 nm in series [4] (setting [15]); 379 nm in series [4] (setting [16]); 286 nm in series [4] (setting [12]); 188 nm in series [4] (setting [17]); 169 nm in series [4] (setting [18]). Further, the Dv90 in series [4] (setting [19]) was 186 nm; in series [4] (setting [20]), 205 nm; in series [1] (setting [7]) it was 130 nm. Further, the PDI in series [4] (setting [14]) is 0.0166; in series [4] (setting [15]), 0.725; in series [4] (setting [16]) it was 0.372; in series [4] (setting [12]), 0.417; in series [4] (setting [17]), 0.381; in series [4] (setting [18]) it was 0.464. Moreover, the PDI in series [4] (setting [19]) was found to be 0.348; in series [4] (setting [20]), 0.325; in series [1] (setting [7]) it was 0.260. Further, the Zave in series [4] (setting [14]) is 108.1 nm; in series [4] (setting [15]) it was 606.5 nm; in series [4] (setting [16]) it was 259.1 nm; in series [4] (setting [12]), 294.2 nm; in series [4] (setting [17]), 236.1 nm; in series [4] (setting [18]), 276.9 nm. Besides, the figures for the Zave in series [4] (setting [19]), in series [4] (setting [20]) and in series [1] (setting [7]) were 192.2 nm, 154.8 nm and 114.1 nm, respectively. Further, the “Reconstituted Solution appearance” value in series [1] (setting [7]) is “precipitation”. Moreover, in series [5], the “outcome after lyophilization” value is “Precipitated”.
In the case of `OC[C@H]1O[C@@H]2O[C@H]3[C@H](O)[C@@H](O)[C@@H](O[C@H]4[C@H](O)[C@@H](O)[C@@H](O[C@H]5[C@H](O)[C@@H](O)[C@@H](O[C@H]6[C@H](O)[C@@H](O)[C@@H](O[C@H]7[C@H](O)[C@@H](O)[C@@H](O[C@H]1[C@H](O)[C@H]2O)O[C@@H]7CO)O[C@@H]6CO)O[C@@H]5CO)O[C@@H]4CO)O[C@@H]3CO` [α-CD, α-cyclodextrin], in series [1] (setting [21]), the Dv90 was found to be 122 nm, the “Filtration Loss” value was determined as 8%, the PDI is 0.088 and the “Reconstituted Solution appearance” value is listed as “good”. Also, the Zave in series [1] (setting [21]) amounted to 92.05 nm. Moreover, in series [2] (setting [11]), the Dv90 was 121 nm, the PDI worked out at 0.070 and the Zave was determined as 92.06 nm. In series [5], this compound came in with a Dv90 of 139 nm, a PDI of 0.087 and a Zave of 101.0 nm.
With `OC[C@H]1O[C@@H]2O[C@H]3[C@H](O)[C@@H](O)[C@@H](O[C@H]4[C@H](O)[C@@H](O)[C@@H](O[C@H]5[C@H](O)[C@@H](O)[C@@H](O[C@H]6[C@H](O)[C@@H](O)[C@@H](O[C@H]7[C@H](O)[C@@H](O)[C@@H](O[C@H]8[C@H](O)[C@@H](O)[C@@H](O[C@H]1[C@H](O)[C@H]2O)O[C@@H]8CO)O[C@@H]7CO)O[C@@H]6CO)O[C@@H]5CO)O[C@@H]4CO)O[C@@H]3CO` [β-CD, β-cyclodextrin], in series [2] (CD 40 mg/mL), the “solubility of the lyoprotectant in the formulation” value is listed as “Beta-CD is not soluble at this”.
In series [2] (setting [11]), `OC[C@H]1O[C@@H]2O[C@H]3[C@H](O)[C@@H](O)[C@@H](O[C@H]4[C@H](O)[C@@H](O)[C@@H](O[C@H]5[C@H](O)[C@@H](O)[C@@H](O[C@H]6[C@H](O)[C@@H](O)[C@@H](O[C@H]7[C@H](O)[C@@H](O)[C@@H](O[C@H]8[C@H](O)[C@@H](O)[C@@H](O[C@H]9[C@H](O)[C@@H](O)[C@@H](O[C@H]1[C@H](O)[C@H]2O)O[C@@H]9CO)O[C@@H]8CO)O[C@@H]7CO)O[C@@H]6CO)O[C@@H]5CO)O[C@@H]4CO)O[C@@H]3CO` [γ-CD, γ-cyclodextrin] had a Dv90 of 121 nm, a PDI of 0.097 and a Zave of 91.06 nm. In series [5], this compound came in with a Dv90 of 139 nm, a PDI of 0.080 and a Zave of 101.8 nm.
Turning to “β-cyclodextrin sulfobutylether [SB-β-CD]”, in series [2] (setting [22]), the Dv90 was determined as 149 nm, the “Filtration Potency Loss” value was determined as 2% and the Zave was 106.9 nm. Also, in series [2] (setting [23]), the Dv90 came to 151 nm, the “Filtration Potency Loss” value is 8% and the Zave was 108.5 nm. The “outcome after lyophilization” value in series [5] was “Precipitated”.
